{"source": "patent US8735620B2", "about": "“Processes for preparing (E)-styrylbenzylsulfone compounds and uses thereof for treating proliferative disorders” (priority 2008, dated 2014)", "key": {"[1]": {"tested_on": "BT20 (human breast tumor cell line)", "experiment": "Cytotoxicity assay (trypan blue exclusion, 96 h), BT20", "assay_type": "cell-based", "details": "BT20, 96 h treatment", "from_the_text": "(§2) Tissue Culture and Reagents: Paclitaxel was purchased from Sigma. Cell lines were purchased from ATCC. Cell lines were routinely grown in DMEM or RPM1 (CellGro) supplemented with 10% fetal bovine serum (Atlas) and 1 unit/mL penicillin-streptomycin (Gibco)."}, "[2]": {"tested_on": "DU145 (human prostate tumor cell line)", "experiment": "Cytotoxicity assay (trypan blue exclusion, 96 h), DU145", "assay_type": "cell-based", "details": "DU145, 96 h treatment; read-out: DU145 IC50", "from_the_text": "as §2"}, "[3]": {"tested_on": "H157 (human lung tumor cell line)", "experiment": "Cytotoxicity assay (trypan blue exclusion, 96 h), H157", "assay_type": "cell-based", "details": "H157, 96 h treatment; read-out: H157 IC50", "from_the_text": "as §2"}, "[4]": {"tested_on": "DLD1 (human colorectal tumor cell line)", "experiment": "Cytotoxicity assay (trypan blue exclusion, 96 h), DLD1", "assay_type": "cell-based", "details": "DLD1, 96 h treatment; read-out: DLD1 IC50", "from_the_text": "as §2"}, "BT20": {"tested_on": "BT20", "experiment": "Soft agar colony formation, BT20", "assay_type": "cell-based, human", "details": "BT20, dose dependent"}, "DU145": {"tested_on": "DU145", "experiment": "Soft agar colony formation, DU145", "assay_type": "cell-based, human", "details": "DU145, dose dependent"}, "MIA-PaCa-2 cells": {"tested_on": "MIA-PaCa-2 cells", "experiment": "Soft agar colony formation, MIA-PaCa-2", "assay_type": "cell-based, human", "method": "(§1) FIG. 1 Anti-tumor effects of (E)-2,4,6-Trimethoxystyryl-3-Hydroxy-4-Methoxybenzyl Sulfone (6aa). A. 6aa inhibits the growth of parental (MES-SA) and Paclitaxel resistant (MES-SA/DX5) cell lines with equal efficiency. The parental uterine sarcoma cells and the MDR positive (MES-SA/DX5) cells were plated into 6 well dishes and treated with various concentrations of 6aa and Paclitaxel for 96 h. The number of viable cells from duplicate plates was determined by trypan blue exclusion. B. Soft Agar Assays. MIA-PaCa-2 cells (1.0×10^5) were plated in soft agar containing various concentrations of each compound in triplicates. After three weeks of growth, the plates were stained for 48 h using 0.05% nitroblue tetrazolium solution. Representative plates were photographed using an Olympus stereoscope mounted with a Sony digital camera system (DKC5000, Sony Inc).\nThe soft agar plates were prepared as described by Cosenza, et al (Cosenza, S. C. et al. In Cell Growth, Differentiation and Senescence, Studzinski, G. P., Ed.; Oxford University Press: 1999, 161-176.). Briefly, Noble bottom agar (0.8%) was plated onto 60 mm tissue culture plates. Exponentially growing MIA-PaCa-2 cells (1.0×10^5) were mixed with growth medium with various concentrations of each compound and mixed with Noble agar to a final concentration of 0.4%. Each concentration was plated in triplicate. The top agar was allowed to solidify and the plates were then incubated at 5% CO2 at 37° C. for 3 weeks. The plates were then stained with 0.05% nitroblue tetrazolium (NBT) solution and representative plates were photographed using an Olympus stereoscope mounted with a Sony digital camera system (DKC5000, Sony Inc)."}, "[5]": {"tested_on": "BT20 human breast carcinoma xenograft", "experiment": "Nude mouse xenograft assay", "method": "Female athymic (NCr-nu/nu) mice were injected subcutaneously with 0.5-1×10^7 ER-negative human breast tumor cells (BT-20) in 0.2 mL of PBS and the tumors allowed to grow to a size of 100-150 mm^3 in size in about 14 days. The mice were then paired such that the pairs harbored equal sized tumors, which were then used to test the therapeutic effects of 6s and 6ab. A Of the pairs, the animals were treated with either 50 mg/kg 6s following a Q4D schedule or 25 mg/kg using a Q2D schedule or vehicle (DMSO) control. The tumor size was then measured on alternate days in two dimensions and the volume determined using either of the following equations: 1: V=(L×(S^2))π/6); where L is the longer and S is the shorter of the two measurements. B. 6ab was dissolved in PBS and was administered intravenously (50 mg/kg) through the tail vein on every alternate day. Tumor measurements were done as in materials and methods.\nFemale athymic (NCR-nu/nu, Taconic) nude mice were injected with 0.5-1.0×10^7 BT20 cells subcutaneously in the hind leg using a 1 mL tuberculin syringe equipped with a 271/2 gauge needle. Approximately 14 days later, mice were paired (N=8) and injected with 6ab or Phosphate buffered saline as the vehicle control. The intravenous injections were performed in the mouse tail vein using a 1 mL tuberculin syringe equipped with a 30 gauge needle. The animals were injected following a Q2D×3 schedule. Tumor measurements (two dimensions) were done three times per week using traceable digital vernier calipers (Fisher)."}, "[6]": {"experiment": "Single dose and repeat-dose toxicology studies in mice", "assay_type": "in vivo"}, "[7]": {"experiment": "Acute and repeat toxicity studies in rats", "assay_type": "in vivo", "details": "intravenous", "method": "Single dose and repeat-dose (28 daily injections) toxicology studies were carried out with one water-soluble form of this series (6ab) to assess the safety of intravenously administered drug in rats."}, "[8]": {"tested_on": "BT20, DU145, H157 and DLD1 cell lines", "experiment": "In vitro cytotoxicity, four human tumor cell lines (SAR discussion)", "assay_type": "cell-based", "details": "four human tumor cell lines", "method": "A number of tumor cell lines were tested using a dose response end point assay system. The cells were grown in either DMEM or RPMI supplemented with 10% fetal bovine serum and 1 unit/mL Penicillin-Streptomycin solution. The tumor cells were plated into 6 well dishes at a cell density of 1.0×10^5 cells/mL/well and compounds were added 24 h later at various concentrations. Cell counts were determined from duplicate wells after 96 h of treatment. The total number of viable cells was determined by trypan blue exclusion.\nFollowing the synthesis of this group of compounds, their in vitro cytotoxicity was assessed using four different human tumor cell lines derived from human breast (BT20), prostate (DU145), lung (H157) and colorectal (DLD1) cancers. […] In a majority of the compounds described here, a methoxy group was kept constant at the 4th position on the aromatic ring of the benzyl moiety."}, "[9]": {"tested_on": "mantle cell lymphoma cell lines", "details": "Park et al Oncogene 2007; cited from earlier work"}, "MES-SA": {"tested_on": "MES-SA", "experiment": "Tumor cell killing, MES-SA (parental uterine sarcoma)", "assay_type": "cell-based, human", "details": "Homo sapiens; parental cell line MES-SA, 96 h dose response; read-out: IC50", "method": "as §1, with “A.” for “FIG. 1 Anti-tumor effects of (E)-2,4,6-Trimethoxystyryl-3-Hydroxy-4-Methoxybenzyl Sulfone (6aa). A.”, “Inc). Tissue Culture and Reagents: […] Cell lines were purchased from ATCC. Cell lines were routinely grown in DMEM or RPM1 (CellGro) supplemented with 10% fetal bovine serum (Atlas) and 1 unit/mL penicillin-streptomycin (Gibco). A number of tumor cell lines were tested using a dose response end point assay system. The cells were grown in either DMEM or RPMI supplemented with 10% fetal bovine serum and 1 unit/mL Penicillin-Streptomycin solution. […] Cell counts were determined from duplicate wells after 96 h of treatment. The total number of viable cells was determined by trypan blue exclusion.” for “Inc).”"}, "MES-SA/DX5": {"tested_on": "MES-SA/DX5", "experiment": "Tumor cell killing, MES-SA/DX5 (multidrug resistant subline)", "assay_type": "cell-based, human", "method": "as §1, with “A.” for “FIG. 1 Anti-tumor effects of (E)-2,4,6-Trimethoxystyryl-3-Hydroxy-4-Methoxybenzyl Sulfone (6aa). A.”, “Inc). Tissue Culture and Reagents: […] Cell lines were purchased from ATCC. Cell lines were routinely grown in DMEM or RPM1 (CellGro) supplemented with 10% fetal bovine serum (Atlas) and 1 unit/mL penicillin-streptomycin (Gibco). A number of tumor cell lines were tested using a dose response end point assay system. The cells were grown in either DMEM or RPMI supplemented with 10% fetal bovine serum and 1 unit/mL Penicillin-Streptomycin solution. […] Cell counts were determined from duplicate wells after 96 h of treatment. The total number of viable cells was determined by trypan blue exclusion.” for “Inc).”"}, "[10]": {"details": "single dose and repeat-dose (28 daily injections)"}}, "data": [{"compound": "(E)-2,4,6-Trimethoxystyryl-3^1-O-phosphate disodium-4-methoxybenzyl Sulfone [6ab]", "values": [{"measurement": "IC50", "setting": "[1]", "result": 5, "unit": "nM"}, {"measurement": "IC50", "setting": "[2]", "result": 2.5, "unit": "nM"}, {"measurement": "IC50", "setting": "[3]", "result": 7, "unit": "nM"}, {"measurement": "IC50", "setting": "[4]", "result": 7, "unit": "nM"}, {"measurement": "growth of tumor cells in soft agar", "setting": "BT20", "result": "complete inhibition of the growth of tumor cells"}, {"measurement": "growth of tumor cells in soft agar", "setting": "DU145", "result": "complete inhibition of the growth of tumor cells"}, {"measurement": "growth of tumor cells in soft agar", "setting": "MIA-PaCa-2 cells; MIA-PaCa-2, dose dependent, three weeks", "result": "complete inhibition of the growth of tumor cells"}, {"measurement": "tumor growth in xenograft model", "setting": "[5]; 50 mg/kg IV tail vein, alternate days, 21 days", "result": "readily inhibited tumor growth"}, {"measurement": "tumor volume response of the majority of the mice", "setting": "[5]; 8 mice per group", "result": "growth arrest or a gradual reduction in their tumor volume"}, {"measurement": "animal deaths", "setting": "[5]; IV, Q2D×3 schedule", "result": "nor were there any animal deaths"}, {"measurement": "body weight loss", "setting": "[5]; IV, Q2D×3 schedule", "result": "Body weight loss of more than 10% was not observed"}, {"measurement": "drug levels in circulation", "setting": "[6]", "result": "High, dose dependent, drug levels were sustained in circulation"}, {"measurement": "hematotoxicity, liver damage, neurotoxicity", "setting": "[6]; [10]", "result": "did not cause hematotoxicity (no myleosuppression), liver damage or detectable neurotoxicity"}, {"measurement": "drug levels in circulation", "setting": "[7]", "result": "High dose dependent drug levels were sustained in circulation"}, {"measurement": "hematotoxicity, liver damage, neurotoxicity", "setting": "[7]; [10]", "result": "did not cause hematotoxicity (no myleosuppression), liver damage or any detectable neurotoxicity"}, {"measurement": "cytotoxic activity, SAR statement", "setting": "[8]", "result": "did not alter the potency"}, {"measurement": "effect on mantle cell lymphoma cell lines", "setting": "[9]", "result": "altered the growth and cell cycle status"}, {"measurement": "water solubility", "setting": "Water solubility", "result": "highly water-soluble"}]}, {"compound": "CC(=O)O[C@H]1C(=O)[C@@]2(C)[C@H]([C@H](OC(=O)c3ccccc3)[C@]3(O)C[C@H](OC(=O)[C@H](O)[C@@H](NC(=O)c4ccccc4)c4ccccc4)C(C)=C1C3(C)C)[C@]1(OC(C)=O)CO[C@@H]1C[C@@H]2O", "note": "[Paclitaxel, reference compound]", "values": [{"measurement": "IC50", "setting": "MES-SA", "result": 4, "unit": "nM"}, {"measurement": "IC50", "setting": "MES-SA/DX5; Homo sapiens, MDR positive subline MES-SA/DX5, 96 h dose response, read-out: IC50", "result": 750, "unit": "nM"}, {"measurement": "fold resistance of MDR positive subline versus parental cell line", "setting": "MES-SA/DX5; MES-SA/DX5 vs MES-SA", "result": "greater than 100 fold"}, {"measurement": "potency in soft agar relative to 6aa and 6ab", "setting": "MIA-PaCa-2 cells; positive control, FIG. 1b", "result": "slightly lower potency"}]}]}
